# Measured values taken from patent publication US20220372430A1, “PROTISTS ENRICHED WITH LIPIDS RICH IN POLYUNSATURATED FATTY ACIDS” (BIOREA, priority 2015, published 2022).
# Legend:
# Schizochytrium limacinum = settings: added exogenously to the culture medium of Schizochytrium, in particular Schizochytrium limacinum; cited from earlier work
# [1] = tested on: Schizochytrium limacinum ATCC-MYA1381; test: Culture of Schizochytrium limacinum in medium with a selenium-containing compound; fatty acid profile of total lipids by GC-FID; type: cell-based; settings: 5 mg of selenium/L in culture medium, incubation 187 h
# Protocol: A strain of Schizochytrium limacinum ATCC-MYA1381 was obtained from the ATCC bank (www.atcc.org).
# The growth characteristics as well as the production of lipids by Schizochytrium limacinum were measured in the presence of different forms of selenium and compared in the absence of such additives (control referenced “Without Se” in the figures).
# Pre-culture of the strain Schizochytrium limacinum ATCC-MYA1381 was carried out in standard liquid medium, the composition of which is given in Table 1. To this end, starter cultures of 50 mL were started in a 250 mL Erlen flask from a colony isolated on 633 M3 chytrid agar (www.atcc.org) and cultured at 25° C.±1° C. in heterotrophy for 48 h in this standard liquid medium. The 100 mL inoculum is then started in a 500 mL Erlen flask from these “starter” cultures at an initial concentration of 1.0×10^6 cells/m/L in the same culture conditions as the latter for 4 days. The cultures were continuously aerated by orbital stirring at 100 rpm (“revolutions per minute”).
# The cultures for enrichment with selenium-containing compounds were started from the inoculum at an initial concentration of 1.0×10^6 cells/mL for a final volume of 400 mL in a 2.0 L Erlen flask at 25° C.±1° C. in heterotrophy for 187 h.
# The cultures were continuously aerated by orbital stirring at 100 rpm. […]
# The total concentration of biomass was monitored by measuring the dry mass (filtration on GFC filter, Whatman, then drying in an oven under vacuum, 70° C. and −0.8 bar (80 kPa), for 24 h minimum before weighing). 10^7 cells/mL were extracted in order to quantify the total lipids. […] In order to ensure complete extraction of the lipids, the tube was kept under stirring on a rocker for 6 hours in darkness, then stored at −20° C. before being analyzed by GC-FID (gas chromatography with flame ionization detection) in order to determine the quantity and the profiles of the total fatty acids extracted. […]
# Crypthecodinium cohnii = settings: n-dodecane (oxygen carrier) added to culture medium of Crypthecodinium cohnii; cited from earlier work
# [2] = tested on: Crypthecodinium cohnii CCMP 316; test: Culture of Crypthecodinium cohnii in medium containing selenomethionine; fatty acid profile and total lipids; type: cell-based
# Protocol: The total concentration of biomass was monitored by measuring the dry mass (filtration on GFC filter, Whatman, then drying in an oven under vacuum, 70° C. and −0.8 bar (80 kPa), for 24 h minimum before weighing). 10^7 cells/mL were extracted in order to quantify the total lipids. The method for extracting lipids is known to a person skilled in the art and is as described by the publication “Bligh E. G. & Dyer W. J., A rapid method of total lipid extraction and purification, Can. J. Biochem. Physiol 37 1959 911-917”, this method having been slightly adapted for microalga cells. Thus, for each measurement, approximately 10 mL of culture (biomass and medium), freshly sampled, was washed with demineralized water so as to remove the extracellular salts before lyophilization, then placed in a glass tube and centrifuged for 10 mins at 3600 g and at 4° C. After centrifugation, the supernatant was removed and the pellet containing the cells was lyophilized. Extraction was carried out with 6 mL of a monophasic CHCl3/MeOH (chloroform/methanol) mixture in proportions of 2/1 (V/V). In order to ensure complete extraction of the lipids, the tube was kept under stirring on a rocker for 6 hours in darkness, then stored at −20° C. before being analyzed by GC-FID (gas chromatography with flame ionization detection) in order to determine the quantity and the profiles of the total fatty acids extracted.
# It was produced in the same way as in Example 1, except that the protist is Crypthecodinium cohnii instead of Schizochytrium limacinum, and that a single source of selenium was used: selenomethionine (“SeMet”).
# Crypthecodinium cohnii is a protist, and more precisely a heterotrophic microalga. The strain Crypthecodinium cohnii CCMP 316 was obtained from the NCMA bank (https://ncma.bigelow.org).
# The results obtained are shown in FIG. 4 which gives respectively, for Crypthecodinium cohnii after incubation for 187 h, the percentage of compound in the total lipids on the y-axis, for each of the compounds (PUFA, DHA and SFA) shown on the x-axis, in the presence of selenomethionine (reference “With SeMet”), or in the absence of a selenium-containing compound (reference “Without Se”).
compound,measurement,setting,value
OC[C@H]1O[C@H](O[C@H]2O[C@H](CO)[C@@H](O)[C@H](O)[C@H]2O)[C@H](O)[C@@H](O)[C@@H]1O [trehalose],fermentation yield of polyunsaturated fatty acids,Schizochytrium limacinum,significantly increase
C[N+](C)(C)CC(=O)[O-] [glycine betaine],fermentation yield of polyunsaturated fatty acids,Schizochytrium limacinum,significantly increase
"O=[Se](O)O [selenite, sodium selenite]",percentage of DHA in the total lipids,[1]; control without Se 41%,54%
same,percentage of SFA in the total lipids,[1]; control without Se 44%,26%
same,percentage of PUFA in the total lipids,[1]; control without Se 53%,73%
CCCCCCCCCCCC [n-dodecane],"production of DHA, of total lipids",Crypthecodinium cohnii,51%
C[Se]CC[C@H](N)C(=O)O [selenomethionine],percentage of DHA in the total lipids,"[2]; 5 mg/L of selenium in culture medium, incubation 187 h, control without Se 24%",34%
same,percentage of PUFA in the total lipids,"[2]; 5 mg/L of selenium in culture medium, incubation 187 h, control without Se 25%",35%
same,percentage of SFA in the total lipids,"[2]; 5 mg/L of selenium in culture medium, incubation 187 h, control without Se 64%",53.5%
same,increase in total lipid content in the dry biomass relative to the control medium,[2]; selenium-containing culture medium versus control medium,34%
